Laboratory results reported in ChEMBL document CHEMBL1125315, “Synthesis and evaluation of 2-pyridinone derivatives as HIV-1-specific reverse transcriptase inhibitors. 2. Analogues of 3-aminopyridin-2(1H)-one” (J Med Chem, 1992).

These compounds were tested on MT4 (assay: Compound was evaluated for antiviral activity against MT-4 cells. Cell culture inhibitor concentration (CIC95) is defined as those which inhibited by >95% the spread of HIV-1 IIIb infection in susceptible cell culture; value ranges from 0.012-0.025 uM). Settings: Homo sapiens, read-out: CIC95.
Type: functional
Cc1cn([C@H]2C[C@H](N=[N+]=[N-])[C@@H](CO)O2)c(=O)[nH]c1=O [ZIDOVUDINE] showed an IC95 of 12 nM.

These compounds were tested against Human immunodeficiency virus type 1 reverse transcriptase (Human immunodeficiency virus 1, UniProt Q72547) (assay: In vitro HIV-1 RT inhibitory activity using rC.dG as template-primer). Settings: not given.
CCc1cc(NCc2nc3c(OC)cccc3o2)c(=O)[nH]c1C was tested, and the IC50 was 180 nM. With Cc1nc(O)c(NCc2nc3ccccc3o2)cc1[S+](C)[O-] (configuration not stated) the IC50 was 31500 nM. In the case of CCc1cc(N(C)Cc2cc3c(Cl)ccc(Cl)c3o2)c(=O)[nH]c1C, the IC50 is reported as 1050 nM. With CCc1cc(NCc2cc3c(Cl)ccc(Cl)c3o2)c(O)nc1C the IC50 was 57 nM. CCc1cc(NCc2cc3ccccc3[nH]2)c(=O)[nH]c1C showed an IC50 of 4400 nM. CCc1cc(NCc2oc3ccccc3c2C)c(=O)[nH]c1C showed an IC50 of 1950 nM. Work on CCc1cc(NCc2cc3cccc(Cl)c3o2)c(O)nc1C yielded an IC50 of 335 nM. CCc1cc(NCc2nc3c([N+](=O)[O-])cccc3o2)c(O)nc1C was tested, and the IC50 was 24500 nM. CCc1cc(NCc2nc3cc(C)ccc3o2)c(O)nc1C showed an IC50 of 1250 nM. O=c1[nH]c2ccccc2cc1NCc1ccc2ccccc2c1 gave an IC50 of over 300000 nM. Work on CCc1cc(NCc2nc3cc4ccccc4cc3o2)c(=O)[nH]c1C yielded an IC50 of 10000 nM. In the case of COc1cc(NCc2nc3c(Cl)ccc(Cl)c3o2)c(O)nc1C, the IC50 is reported as 115 nM. CCc1cc(NCc2c[nH]c3ccccc23)c(O)nc1C gave an IC50 of 22500 nM. For CCc1cc(NCc2nc3c(F)ccc(Cl)c3o2)c(=O)[nH]c1C, the IC50 was 105 nM. In the case of CCSc1cc(NCc2nc3ccccc3o2)c(=O)[nH]c1C, the IC50 is reported as 430 nM. In the case of CCc1cc(NCc2ccc3ccccc3c2)c(=S)[nH]c1C, the IC50 is reported as 300 nM. With CCc1cc(N(CC)Cc2nc3c(Cl)ccc(Cl)c3o2)c(O)nc1C the IC50 was 654 nM. With CCc1cc(NCc2ncc(-c3ccccc3)o2)c(=O)[nH]c1C the IC50 was 2350 nM. For CCc1cc(NCc2nc3c(Cl)ccc(Cl)c3o2)c(S)nc1C, the IC50 was 42 nM. With CCc1cc(NCc2cccc3ccccc23)c(=O)[nH]c1C the IC50 was 2100 nM. With CC(=O)c1cc(NCc2nc3c(Cl)ccc(Cl)c3o2)c(O)nc1C the IC50 was 300 nM. CCc1cc(N(C)Cc2nc3c(C)ccc(C)c3o2)c(=O)[nH]c1C showed an IC50 of 103 nM. CCc1cc(NCc2ccc3ccccc3c2)c(=O)[nH]c1C was tested, and the IC50 was 460 nM. CCc1cc(NCc2nc3ccccc3c(=O)[nH]2)c(=O)[nH]c1C was tested, and the IC50 was 2500 nM. Work on CCc1cc(NCc2nc3ccc(C)cc3o2)c(=O)[nH]c1C yielded an IC50 of 1650 nM. With CCc1cc(NCc2nc3ccc(F)cc3o2)c(=O)[nH]c1C the IC50 was 1250 nM. With CCc1cc(NCc2nc3c(F)cccc3o2)c(=O)[nH]c1C the IC50 was 110 nM. For CCc1cc(NCc2nc3c(C)cccc3o2)c(O)nc1C, the IC50 was 120 nM. CCc1cc(NC(C)c2cc3ccccc3o2)c(=O)[nH]c1C (configuration not stated) showed an IC50 of 970 nM. With CCc1cc(NCc2nc3c(Cl)cccc3o2)c(O)nc1C the IC50 was 150 nM. CCc1cc(NCc2cc3cnccc3o2)c(=O)[nH]c1C showed an IC50 of 32300 nM. Compound Cc1[nH]c(=O)c(NCc2nc3ccccc3o2)cc1S(C)(=O)=O has an IC50 of 1150 nM. CCc1cc(N(C)Cc2nc3c(Cl)ccc(Cl)c3o2)c(=O)[nH]c1C showed an IC50 of 58 nM. CSc1cc(NCc2nc3c(Cl)ccc(Cl)c3o2)c(O)nc1C was tested, and the IC50 was 43 nM. CCc1cc(NCc2ccco2)c(=O)[nH]c1C was tested, and the IC50 was 29000 nM. Compound CCc1cc(NCc2nc3c(ccc4ccccc43)o2)c(O)nc1C has an IC50 of 2700 nM. For CCc1cc(NCc2cc3ccncc3o2)c(O)nc1C, the IC50 was 105000 nM. CCc1cc(NCc2cccnc2)c(=O)[nH]c1C showed an IC50 of 300000 nM. For CCc1cc(NCc2ccc3ccccc3n2)c(=O)[nH]c1C, the IC50 was 530 nM. Compound CCc1cc(NCc2nc3ccccc3[nH]2)c(O)nc1C has an IC50 of 7580 nM. Compound CCc1c(C)[nH]c(=O)c(NCc2nc3ccccc3o2)c1C has an IC50 of 600 nM. For CCc1cc(NCc2nc3cccc(F)c3o2)c(=O)[nH]c1C, the IC50 was 92 nM. For CCc1cc(NCc2ccc3ccccc3c2)c(=O)n(C)c1C, the IC50 was 11000 nM. CCc1cc(NCc2nc3cccc(Cl)c3o2)c(=O)[nH]c1C showed an IC50 of 65 nM. Compound CCc1cc(NCc2nc3cccc(CC)c3o2)c(O)nc1C has an IC50 of 260 nM. CCc1cc(NCc2coc3ccccc3c2=O)c(=O)[nH]c1C showed an IC50 of 1100 nM. CCc1cc(NCc2nc3ncccc3o2)c(O)nc1C showed an IC50 of 1900 nM. CCOC(=O)c1cc(NCc2nc3ccccc3o2)c(=O)[nH]c1C gave an IC50 of 1750 nM. CCc1cc(NCc2ccccn2)c(O)nc1C was tested, and the IC50 was 15000 nM. CCc1cc(NC(C)c2ccc3ccccc3c2)c(O)nc1C (configuration not stated) showed an IC50 of 1130 nM. CCc1cc(NCc2ccccc2)c(=O)[nH]c1C showed an IC50 of 5330 nM. Work on CCc1cc(NCc2nc3c(O)cccc3o2)c(=O)[nH]c1C yielded an IC50 of 440 nM. Work on Cc1cc(C)c(NCc2nc3c(Cl)ccc(Cl)c3o2)c(=O)[nH]1 yielded an IC50 of 2850 nM. In the case of CCc1cc(NCc2cnc3ccccc3c2)c(=O)[nH]c1C, the IC50 is reported as 335 nM. Work on CCc1cc(NCc2nc3c(o2)CCCC3)c(=O)[nH]c1C yielded an IC50 of 280 nM. Work on Cc1[nH]c(=O)c(NCc2nc3c(Cl)ccc(Cl)c3o2)cc1C(C)O (configuration not stated) yielded an IC50 of 1050 nM. Work on C=Cc1cc(NCc2nc3c(Cl)ccc(Cl)c3o2)c(=O)[nH]c1C yielded an IC50 of 23 nM. Compound CSc1cc(NCc2nc3ccccc3o2)c(O)nc1C has an IC50 of 190 nM. With CCc1cc(NCc2cc3ccccc3o2)c(O)nc1C the IC50 was 330 nM. Compound CCc1cc(NCc2nc3c(N)cccc3o2)c(O)nc1C has an IC50 of 67000 nM. With CCc1cc(NCc2nc3cc(F)ccc3o2)c(=O)[nH]c1C the IC50 was 470 nM. CCc1cc(NCc2ccoc2)c(O)nc1C showed an IC50 of 145000 nM. Compound CCc1cc(NCc2cc3ccccc3s2)c(O)nc1C has an IC50 of 500 nM. With CCc1cc(NCc2nc3c(F)ccc(F)c3o2)c(=O)[nH]c1C the IC50 was 70 nM.

Each compound was assayed on H9 (assay: Compound was evaluated for antiviral activity in H9 cells. Cell culture inhibitor concentration (CIC95) is defined as uM). Settings: Homo sapiens, read-out: CIC95.
Type: functional
Compound CCc1cc(NCc2nc3c(C)ccc(C)c3o2)c(O)nc1C has an IC95 of 100 nM.

These compounds were tested on H9 (assay: Compound was evaluated for antiviral activity against H9 cells. Cell culture inhibitor concentration (CIC95) is defined as those which inhibited by >95% the spread of HIV-1 IIIb infection in susceptible cell culture). Settings: Homo sapiens, read-out: CIC95.
Type: functional
Compound Cc1cn([C@H]2C[C@H](N=[N+]=[N-])[C@@H](CO)O2)c(=O)[nH]c1=O [ZIDOVUDINE] has an IC95 of 20000 nM.

What follows are compounds tested on MT4 (assay: Compound was evaluated for antiviral activity in MT-4 cells. Cell culture inhibitor concentration (CIC95) is defined as concentration which inhibited >95% the spread of HIV-1 IIIb infection in susceptible cell culture; value ranges from 0.025-0.050 uM). Settings: Homo sapiens, read-out: CIC95.
Type: functional
With CCc1cc(NCc2nc3c(C)ccc(C)c3o2)c(O)nc1C the IC95 was 25 nM. In the case of CCc1cc(NCc2nc3c(Cl)ccc(Cl)c3o2)c(O)nc1C [L-697661], the IC95 is reported as 25 nM.

The compounds below were run on MT4 (assay: Compound was evaluated for antiviral activity in MT-4 cells. Cell culture inhibitor concentration (CIC95) is defined as concentration which inhibited >95% the spread of HIV-1 IIIb infection in susceptible cell culture). Settings: Homo sapiens, read-out: CIC95.
Type: functional
CCc1cc(NCc2cc3c(Cl)ccc(Cl)c3o2)c(O)nc1C was tested, and the IC95 was 50 nM. Compound CCc1cc(NCc2nc3ccccc3o2)c(O)nc1C has an IC95 of 200 nM. In the case of CSc1cc(NCc2nc3c(Cl)ccc(Cl)c3o2)c(O)nc1C, the IC95 is reported as 100 nM.
